In patent publication US20130109693A1, “DERIVATIVES OF PYRIDO [3,2-D] PYRIMIDINE, METHODS FOR PREPARATION THEREOF AND THERAPEUTIC USES THEREOF” (UNIVERSITE D'ORLEANS, priority 2010, published 2013):

Columns and labels:
[1] = molecular target: GSK-3αβ; experiment: GSK-3αβ kinase inhibition (GS-1 substrate, buffer A); format: biochemical; settings: 15 μM ATP, 30° C., native, pig brain; read-out: IC50 Kinases GSK3
Procedure: (§1) The activities for inhibiting protein kinases of the compounds of the invention are tested according to the following general procedure:
(§2) Buffer A: 10 mM MgCl2, 1 mM EGTA, 1 mM DTT, 25 mM Tris-HCl pH 7.5 and 50 μg heparin/mL.
(§3) The kinase activities are dosed in buffers A or C, at 30° C., at a final concentration of ATP of 15 μM. The values of the blanks were subtracted and the activities are expressed as a % of the maximum activity, i.e. in the absence of inhibitors. The controls were carried out with suitable dilutions of DMSO.
GSK-3αβ (from pig brain, native) was assayed by using a specific substrate of GSK-3 (GS-1: […]pEDEEE)(Sp represents a phosphorylated serine) (Primot, A., Baratte, B., Gompel, M., Borgne, A., Liabeuf, S., Romette, J. L., Costantini, F. and Meijer, L., 2000. Purification of GSK-3 by affinity chromatography on immobilized axin. Protein Expr. & Purif. 20 (3), 394-404). GS-1 was synthesized by Millegen (Labège, France). Its kinase activity was analyzed in the buffer A, with 1 mg of histone H1/mL, in the presence of 15 μM of [γ-^33P] ATP (3,000 Ci/mmol; 10 mCi/mL) in a final volume of 30 μl. After 30 mins of incubation at 30° C., 25 μl of supernatant aliquots were deposited on 2.5×3 cm pieces of phosphocellulose Whatman P81papier, and after 20 seconds, the filters were washed five times (for at least 5 minutes every time) in a solution of 10 mL of phosphoric acid/liter of water. The wet filters were counted in the presence of 1 mL of ACS scintillator fluid (Amersham).

[2] = tested on: MDA-MB 231; experiment: Cytotoxicity on human cells, MDA-MB 231 (breast); format: cell-based; settings: MDA-MB-231, human cells, exposed 24 h and 48 h, 0.1 to 25 μM
Procedure: (§4) […] Dosages on Human cells (Huh7, Caco, MDA-MB 231, HCT 116, PC3, NCl, Fibroblast)
(§5) Cytotoxicity: This method is based on an automated imaging analysis. 4.10^3 cells were cultivated on 96-well plates and thus left for 24 hours so that they may bind, be distributed and proliferate.
(§6) These cells were then exposed for 24 h and 48 h to increasing concentrations of the compounds of the invention, from 0.1 to 25 μM in a final volume of 80 μL of culture medium. The cells are then set with a 4% paraformaldehyde solution and the nuclei are colored with Hoechst 3342 and counted according to automated imaging quantification.
(§7) All the cell lines were cultivated in a DMEM or RPMI (Invitrogen) medium. All these media were completed with antibiotics (penicillin-streptomycin)(Lonza) and 10% by volume of foetal calf serum (Invitrogen). The cells were cultivated at 37° C. with 5% of CO2. The treatments with the molecules to be tested were carried out with increasing concentrations. […] The control experiments were also conducted by using suitable dilutions of DMSO (maximum 1% DMSO). Cell viability was determined by measuring the reduction of MTS as described in the article of Ribas J, Boix J. (2004). Cell differentiation caspase inhibition and macromolecular synthesis blockage but not BCL-2 or BCL-XL proteins protect SH-SY5Y cells from apoptosis triggered by two CDK inhibitory drugs. Exp. Cell Res., 295: 9-24.

[3] = tested on: NCI; experiment: Cytotoxicity on human cells, NCI (lung); format: cell-based; settings: exposed 24 h and 48 h, 0.1 to 25 μM
Procedure: as §4, §5, §6, §7

[4] = molecular target: DYRK1A (Homo sapiens, UniProt Q13627); experiment: DYRK1A kinase inhibition (Woodtide substrate, buffer A); format: biochemical; settings: 15 μM ATP, 30° C., recombinant GST fusion; read-out: IC50 Kinases DYRK1A
Procedure: as §1, §2, §3

[5] = tested on: HCT 116; experiment: Cytotoxicity on human cells, HCT 116 (colon); format: cell-based; settings: exposed 24 h and 48 h, 0.1 to 25 μM
Procedure: as §4, §5, §6, §7

[6] = molecular target: T1, CDK5 (Homo sapiens, UniProt Q00535); experiment: CDK5 kinase inhibition (histone H1, [γ-33P] ATP, buffer C); format: biochemical; settings: 15 μM ATP, 30° C., recombinant; read-out: IC50 Kinases CDK5
T1 construct: made in house
Procedure: as §1
Buffer C: 60 mM β-glycerophosphate, 15 mM p-nitrophenyl-phosphate, 25 mM Mops (pH 7.2), 5 mM EGTA, 15 mM MgCl2, 1 mM DTT, 1 mM of sodium vanadate
as §3
CDK5 (humane, recombinant) was prepared as described earlier (Leclerc, S.; Garnier, M.; Hoessel, R.; Marko, D.; Bibb, J. A.; Snyder, G. L.; Greengard, P.; Biernat, J.; Mandelkow, E.-M.; Eisenbrand, G.; Meijer, L. Indirubins inhibit glycogen synthase kinase-3β and CDK5/p25, two kinases involved in abnormal tau phosphorylation in Alzheimer's disease—A property common to most CDK inhibitors? J. Biol. Chem. 2001, 276, 251-260; Bach S, Knockaert M, Reinhardt J, Lozach O, Schmitt S, Baratte B et al. (2005). Roscovitine targets, protein kinases and pyridoxal kinase. J. Biol Chem 280: 31208-31219). Its kinase activity was analyzed in the buffer C, with 1 mg of histone H1/mL, in the presence of 15 μM of [γ-^33P] ATP (3,000 Ci/mmol; 10 mCi/mL) in a final volume of 30 μl. After 30 mins of incubation at 30° C., 25 μl of supernatant aliquots were deposited on 2.5×3 cm pieces of phosphocellulose Whatman P81 paper, and after 20 seconds, the filters were washed five times (for at least 5 minutes every time) in a solution of 10 mL phosphoric acid/liter of water. The wet filters were counted in the presence of 1 mL of ACS scintillator fluid (Amersham).

[7] = tested on: Huh7; experiment: Cytotoxicity on human cells, Huh7 (liver); format: cell-based; settings: Huh-7, human cells, exposed 24 h and 48 h, 0.1 to 25 μM
Procedure: as §4, §5, §6, §7

[8] = tested on: fibroblast; experiment: Cytotoxicity on human cells, fibroblast; format: cell-based; settings: exposed 24 h and 48 h, 0.1 to 25 μM
Procedure: as §4, §5, §6, §7

[9] = tested on: Caco; experiment: Cytotoxicity on human cells, Caco (colon); format: cell-based; settings: exposed 24 h and 48 h, 0.1 to 25 μM
Procedure: as §4, §5, §6, §7

[10] = tested on: PC3; experiment: Cytotoxicity on human cells, PC3 (prostate); format: cell-based; settings: PC-3, human cells, exposed 24 h and 48 h, 0.1 to 25 μM
Procedure: as §4, §5, §6, §7

T1 sequence (Q00535 whole entry): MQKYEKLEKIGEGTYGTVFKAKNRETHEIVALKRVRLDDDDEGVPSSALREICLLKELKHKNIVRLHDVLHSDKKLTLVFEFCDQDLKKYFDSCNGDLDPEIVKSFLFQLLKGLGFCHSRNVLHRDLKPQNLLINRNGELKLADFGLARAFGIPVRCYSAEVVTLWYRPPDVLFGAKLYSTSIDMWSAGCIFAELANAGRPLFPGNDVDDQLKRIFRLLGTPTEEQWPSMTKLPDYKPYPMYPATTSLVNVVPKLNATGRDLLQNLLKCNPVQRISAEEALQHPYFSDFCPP
T1 sequence (Q15078 99-307 partner limits assumed): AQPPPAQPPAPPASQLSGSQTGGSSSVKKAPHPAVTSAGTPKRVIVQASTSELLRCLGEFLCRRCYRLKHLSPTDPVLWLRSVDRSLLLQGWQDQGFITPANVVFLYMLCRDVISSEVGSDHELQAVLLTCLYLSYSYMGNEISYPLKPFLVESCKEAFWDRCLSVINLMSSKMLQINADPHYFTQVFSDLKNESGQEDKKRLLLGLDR

| Structure (SMILES) | IC50 [1] [µM] | IC50 [2] [µM] | IC50 [3] [µM] | IC50 [4] [µM] | IC50 [5] [µM] | IC50 [6] [µM] | IC50 [7] [µM] | IC50 [8] [µM] | IC50 [9] [µM] | melting point [°C] | IC50 [10] [µM] |
| --- | --- | --- | --- | --- | --- | --- | --- | --- | --- | --- | --- |
| Oc1ccc(-c2ncc3ncc(Cl)cc3n2)cc1 [Compound 17, 7-Chloro-2-(4-hydroxyphenyl)-pyrido[3,2-d]pyrimidine] | > 100 | > 25 | > 25 | 16 | > 25 | 5.1 | > 25 | > 25 | > 25 | 231 to 232 | > 25 |
| Oc1ccc(-c2cnc3cnc(-c4ccc(O)cc4)nc3c2)cc1 [Compound 20, 2,7-Di-(4-hydroxyphenyl)-pyrido[3,2-d]pyrimidine] | 26 | > 25 | > 25 | 0.93 | 12 | 0.12 | 12 | > 25 | 7 | – | 25 |
| Oc1cccc(-c2cnc3cnc(-c4cccc(O)c4)nc3c2)c1 [Compound 21, 2,7-Di-(3-hydroxyphenyl)-pyrido[3,2-d]pyrimidine] | > 100 | > 25 | > 25 | 3.4 | > 25 | 2.6 | > 25 | > 25 | 20 | 264 to 265 | 25 |
| Oc1ccccc1-c1cnc2cnc(-c3ccccc3O)nc2c1 [Compound 22, 2,7-Di-(2-hydroxyphenyl)-pyrido[3,2-d]pyrimidine] | > 10 | > 25 | 2 | > 10 | > 25 | > 10 | > 25 | > 25 | > 25 | 239 to 240 | > 25 |
| Oc1ccc(-c2ncc3ncc(-c4cccc(O)c4)cc3n2)cc1 [Compound 23, 2-(4-Hydroxyphenyl)-7-(3-hydroxyphenyl)-pyrido[3,2-d]pyrimidine] | > 100 | > 25 | 20 | 2.4 | 7 | 0.11 | 10 | > 25 | 4 | 256 to 257 | 9 |
| Oc1ccc(-c2ncc3ncc(-c4ccccc4O)cc3n2)cc1 [Compound 24, 2-(4-Hydroxyphenyl)-7-(2-hydroxyphenyl)-pyrido[3,2-d]pyrimidine] | ≥ 100 | > 25 | > 25 | 2.7 | 20 | 0.09 | 25 | > 25 | 20 | 278 to 279 | 20 |
| Oc1ccc(-c2ncc3ncc(-c4ccc(C(F)(F)F)cc4)cc3n2)cc1 [Compound 25, 2-(4-Hydroxyphenyl)-7-(4-trifluoromethylphenyl)-pyrido[3,2-d]pyrimidine] | ≥ 100 | > 25 | 20 | 24 | > 25 | 0.97 | 25 | > 25 | > 25 | 203 to 204 | > 25 |
| CS(=O)(=O)c1ccc(-c2cnc3cnc(-c4ccc(O)cc4)nc3c2)cc1 [Compound 26, 2-(4-Hydroxyphenyl)-7-(4-methanesulfonylphenyl)-pyrido[3,2-d]pyrimidine] | > 100 | > 25 | > 25 | > 10 | > 25 | 0.48 | > 25 | > 25 | > 25 | 306 to 307 | > 25 |
| Oc1ccc(-c2ncc3ncc(-c4ccoc4)cc3n2)cc1 [Compound 36] | – | – | – | > 10 | 10 | – | > 25 | 20 | – | – | > 25 |
| COc1ccc(Nc2cnc3c(NCc4ccccc4)nc(NCCO)nc3c2)cc1 [Compound 83, 4-Benzylamino-2-(2-hydroxyethylamino)-7-(4-methoxyphenylamino)-pyrido[3,2-d]pyrimidine] | – | 10 | 6 | – | 5 | – | 5 | 15 | 8 | 126 to 127 | 12 |
| COc1cccc(Nc2cnc3c(NCc4ccccc4)nc(NCCO)nc3c2)c1 [Compound 84, 4-Benzylamino-2-(2-hydroxyethylamino)-7-(3-methoxyphenylamino)-pyrido[3,2-d]pyrimidine] | – | 15 | 3 | – | 5 | – | 3 | 5 | 4 | 110 to 111 | 5 |
| OCCNc1nc(NCc2ccccc2)c2ncc(Nc3ncccn3)cc2n1 [Compound 87, 4-Benzylamino-2-(2-hydroxyethylamino)-7-(2-pyrimidinylamino)-pyrido[3,2-d]pyrimidine] | – | 15 | 6 | – | 6 | – | 7 | 15 | 8 | 141 to 142 | 15 |
| OCCNc1nc(NCc2ccccc2)c2ncc(Nc3cnc4ccccc4c3)cc2n1 [Compound 89, 4-Benzylamino-2-(2-hydroxyethylamino)-7-(3-quinolinamino)-pyrido[3,2-d]pyrimidine] | – | 3 | 2 | – | 0.5 | – | 3 | 2 | 2 | 154 to 155 | 3 |
| OCCNc1nc(NCc2ccccc2)c2ncc(Nc3ccc4ncccc4c3)cc2n1 [Compound 90, 4-Benzylamino-2-(2-hydroxyethylamino)-7-(6-quinolinamino)-pyrido[3,2-d]pyrimidine] | – | 4 | 2 | – | 1.2 | – | 2 | 1.5 | 4 | 203 to 204 | 5 |
